Tested on: LC3 in MOLM-13 cells
Assay: Autophagy activation: LC3 Western blot and confocal microscopy
Details: 48 hours in culture
Protocol: C MOLM-13 cells were treated as in FIG. 1A for 24 or 48 hours. […] D The same cells analysed by Western blot in C were also assessed by confocal microscopy analysis to highlight the LC3 dots (in green); the DNA is highlighted in blue by the Hoechst dye.
After being deposited on a slide via cytospin, the cells were fixed with 4% paraformaldehyde for 7 min, permeabilized with 0.1% TritonX100 in PBS/1% BSA for 5 min and stained with the primary anti-FLT3 (rabbit monoclonal, FLT3 (8F2), #3462, Cell Signaling Technologies, Danvers, MA, USA) or anti-calnexin (CNX, rabbit polyclonal AB22595, AbCam, Cambridge, UK) or anti-calreticulin (CRT, rabbit polyclonal AB2907, AbCam, Cambridge, UK) or anti-LC3 (LC3B Antibody #2775) antibodies, and then with an Alexa Fluor-488 secondary anti-rabbit IgG antibody Molecular Probes, ThermoFisher Scientific, Waltham, MA, USA); the DNA was detected with the TOPRO-3 (Molecular Probes, ThermoFisher Scientific, Waltham, MA, USA) or Hoechst dye (Molecular Probes, ThermoFisher Scientific, Waltham, MA, USA) and the slides were mounted with the Vectashield medium (Vector Laboratories, Burlingame, CA, USA). The images were acquired with a Leica confocal laser scanning microscope TCS SP2 at 40× magnification or with a Zeiss LSM900 at 63× magnification. The images were analysed using the Leica Confocal software (Leica, Milan, Italy) or the Zeiss Zen Blue software. […]

`CC1=C(/C=C/C(C)=C/C=C/C(C)=C/C(=O)O)C(C)(C)CCC1` [R, all-trans retinoic acid] was tested. Which “autophagy activation (LC3 activity, LC3-II/LC3-I)” value did it give?
Its value is “slight increase in LC3 activity”.

— patent publication US12616673B2 (priority 2020, dated 2026)
